In US8431593B2, “Heteroaryl amide derivatives” (H. Lundbeck A/S, priority 2006, dated 2013):

Biological target: T1, P2X7 receptor (Homo sapiens, UniProt Q99572)
T1 construct: host or cells: SH-SY5Y
T1 sequence (Q99572 1-595): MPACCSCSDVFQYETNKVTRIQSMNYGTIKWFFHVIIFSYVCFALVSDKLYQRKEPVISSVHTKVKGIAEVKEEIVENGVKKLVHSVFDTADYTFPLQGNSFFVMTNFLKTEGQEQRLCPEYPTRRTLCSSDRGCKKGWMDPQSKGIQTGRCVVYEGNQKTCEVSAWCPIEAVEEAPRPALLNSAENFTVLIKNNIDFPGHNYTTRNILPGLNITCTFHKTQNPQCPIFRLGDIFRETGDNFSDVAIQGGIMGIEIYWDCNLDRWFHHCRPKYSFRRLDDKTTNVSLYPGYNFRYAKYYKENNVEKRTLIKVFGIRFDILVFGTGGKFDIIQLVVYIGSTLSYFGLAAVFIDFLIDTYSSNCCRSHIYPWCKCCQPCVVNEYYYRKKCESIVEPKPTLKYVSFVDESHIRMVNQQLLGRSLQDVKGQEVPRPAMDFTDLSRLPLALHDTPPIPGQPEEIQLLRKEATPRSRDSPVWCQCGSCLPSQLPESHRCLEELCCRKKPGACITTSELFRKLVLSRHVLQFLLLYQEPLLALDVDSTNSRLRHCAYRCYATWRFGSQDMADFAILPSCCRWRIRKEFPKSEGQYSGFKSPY
Assay: P2X7 calcium mobilization assay, high throughput, antagonist activity (Example 4A)
Assay type: cell-based
Settings: 50% decrease in the fluorescence response of cells exposed to 80 μM of 2′(3′)-O-(4-benzoyl-benzoyl)adenosine 5′-triphosphate; Example 4A; read-out: IC50
Method in brief: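 100,000 cells/well, plated day -1. Dye 1 h → rinse → compound 1 h, RT → FLIPR^TETRA Ca2+ mobilization. Max RFU minus mean negative control (no agonist); mean agonist-well max as positive control.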

SMILES	IC50 [µM]
CC(C)CC(CNC(=O)c1cccc2nc(CC(=O)N3CCCC(N(C)C)C3)cn12)c1ccccc1 (centres unmarked) [Compound 789, 2-{2-[3-(dimethylamino)piperidin-1-yl]-2-oxoethyl}-N-(4-methyl-2-phenylpentyl) imidazo[1,2-a] pyridine-5-carboxamide]	< 2
CN(C)C1CCCN(C(=O)Cc2cn3c(C(=O)NC[C@H]4CCC5CC4C5(C)C)cccc3n2)C1 (stereo partly drawn) [Compound 790, 2-{2-[3-(dimethylamino)piperidin-1-yl]-2-oxoethyl}-N-{[(2S)-6,6-dimethylbicyclo [3.1.1]hept-2-yl]methyl}imidazo [1,2-a]pyridine-5-carboxamide]	< 2
CC1(C)C2CC[C@H](CNC(=O)c3cccc4nc(CC(=O)NC5CCCC5)cn34)C1C2 (stereo partly drawn) [Compound 791, 2-[2-(cyclopentylamino)-2-oxoethyl]-N-{[(2S)-6,6-dimethylbicyclo [3.1.1]hept-2-yl]methyl}imidazo [1,2-a]pyridine-5-carboxamide]	< 2
CC(C)CC(CNC(=O)c1cccc2nc(CC(=O)N3CCCC(N(C)C)C3)cn12)c1ccc(Cl)cc1 (centres unmarked) [Compound 792, N-[2-(4-chlorophenyl)-4-methylpentyl]-2-{2-[3-(dimethylamino)piperidin-1-yl]-2-oxoethyl} imidazo[1,2-a] pyridine-5-carboxamide]	< 2
CC1(C)C2CC[C@H](CNC(=O)c3cccc4nc(CC(=O)NCC(F)(F)F)cn34)C1C2 (stereo partly drawn) [Compound 793, N-{[(2S)-6,6-dimethylbicyclo [3.1.1]hept-2-yl]methyl}-2-{2-oxo-2-[(2,2,2-trifluoroethyl)amino]ethyl}imidazo [1,2-a]pyridine-5-carboxamide]	< 2
CC(C)CC(CNC(=O)c1cccc2nc(CC(=O)NC3CCCC3)cn12)c1ccc(Cl)cc1 (centres unmarked) [Compound 794, N-[2-(4-chlorophenyl)-4-methylpentyl]-2-[2-(cyclopentylamino)-2-oxoethyl]imidazo [1,2-a]pyridine-5-carboxamide]	< 2
CC1(C)C2CC[C@H](CNC(=O)c3cccc4nc(CC(=O)N5CCSCC5)cn34)C1C2 (stereo partly drawn) [Compound 795, N-{[(2S)-6,6-dimethylbicyclo[3.1.1]hept-2-yl]methyl}-2-(2-oxo-2-thiomorpholin-4-ylethyl)imidazo[1,2-a] pyridine-5-carboxamide]	< 2
CC(C)CC(CNC(=O)c1cccc2nc(CC(=O)NCC(F)(F)F)cn12)c1ccc(Cl)cc1 (centres unmarked) [Compound 796, N-[2-(4-chlorophenyl)-4-methylpentyl]-2-{2-oxo-2-[(2,2,2-trifluoroethyl)amino]ethyl} imidazo[1,2-a] pyridine-5-carboxamide]	< 2
CC(C)CC(CNC(=O)c1cccc2nc(CC(=O)N3CCSCC3)cn12)c1ccccc1 (centres unmarked) [Compound 797, N-(4-methyl-2-phenylpentyl)-2-(2-oxo-2-thiomorpholin-4-ylethyl)imidazo [1,2-a]pyridine-5-carboxamide]	< 2
CC(C)CC(CNC(=O)c1cccc2nc(CC(=O)N3CCSCC3)cn12)c1ccc(Cl)cc1 (centres unmarked) [Compound 798, N-[2-(4-chlorophenyl)-4-methylpentyl]-2-(2-oxo-2-thiomorpholin-4-ylethyl)imidazo[1,2-a] pyridine-5-carboxamide]	< 2
CCOC(=O)C(Cc1ccc(Cl)cc1)c1cn2c(C(=O)NCC34CC5CC(CC(C5)C3)C4)cccc2n1 (centres unmarked) [Compound 800, ethyl 2-{5-[(adamantan-1-ylmethyl)carbamoyl]imidazo[1,2-a]pyridin-2-yl}-3-(4-chlorophenyl) propanoate]	< 2
CCOC(=O)C(Cc1ccc(OC)cc1)c1cn2c(C(=O)NCC34CC5CC(CC(C5)C3)C4)cccc2n1 (centres unmarked) [Compound 801, ethyl 2-{5-[(adamantan-1-ylmethyl)carbamoyl]imidazo[1,2-a]pyridin-2-yl}-3-(4-methoxyphenyl) propanoate]	< 2
CCOC(=O)C(CC(=O)N1CCOCC1)c1cn2c(C(=O)NCC34CC5CC(CC(C5)C3)C4)cccc2n1 (centres unmarked) [Compound 802, ethyl 2-{5-[(adamantan-1-ylmethyl)carbamoyl]imidazo[1,2-a]pyridin-2-yl}-4-morpholin-4-yl-4-oxobutanoate]	< 2
O=C(NCC12CC3CC(CC(C3)C1)C2)c1cccc2nc(C(CC(=O)N3CCOCC3)C(=O)O)cn12 (centres unmarked) [Compound 803, 2-{5-[(adamantan-1-ylmethyl)carbamoyl]imidazo[1,2-a]pyridin-2-yl}-4-morpholin-4-yl-4-oxobutanoic acid]	< 2
O=C(NCC12CC3CC(CC(C3)C1)C2)c1cccc2nc(C(Cc3ccc(Cl)cc3)C(=O)O)cn12 (centres unmarked) [Compound 804, 2-{5-[(adamantan-1-ylmethyl)carbamoyl]imidazo[1,2-a]pyridin-2-yl}-3-(4-chlorophenyl) propanoic acid]	< 2
COc1ccc(CC(C(=O)O)c2cn3c(C(=O)NCC45CC6CC(CC(C6)C4)C5)cccc3n2)cc1 (centres unmarked) [Compound 805, 2-{5-[(adamantan-1-ylmethyl)carbamoyl]imidazo[1,2-a]pyridin-2-yl}-3-(4-methoxyphenyl) propanoic acid]	< 2
CC(C)(C)OC(=O)C(C#N)Cc1cn2c(C(=O)NCC34CC5CC(CC(C5)C3)C4)cccc2n1 (centres unmarked) [Compound 806, tert-butyl 3-{5-[(adamantan-1-ylmethyl)carbamoyl]imidazo[1,2-a]pyridin-2-yl}-2-cyanopropanoate]	< 2
CNC(=O)CC1(c2cn3c(C(=O)NCC45CC6CC(CC(C6)C4)C5)cccc3n2)CC(=O)N(C)C1=O (centres unmarked) [Compound 807, N-(adamantan-1-ylmethyl)-2-{1-methyl-3-[2-(methylamino)-2-oxoethyl]-2,5-dioxopyrrolidin-3-yl}imidazo[1,2-a] pyridine-5-carboxamide]	< 2
CCNC(=O)CC1(c2cn3c(C(=O)NCC45CC6CC(CC(C6)C4)C5)cccc3n2)CC(=O)N(CC)C1=O (centres unmarked) [Compound 808, N-(adamantan-1-ylmethyl)-2-{1-ethyl-3-[2-(ethylamino)-2-oxoethyl]-2,5-dioxopyrrolidin-3-yl}imidazo[1,2-a]pyridine-5-carboxamide]	< 2
CCOC(=O)C(CC(=O)N(C)C)c1cn2c(C(=O)NCC34CC5CC(CC(C5)C3)C4)cccc2n1 (centres unmarked) [Compound 809, ethyl 2-{5-[(adamantan-1-ylmethyl)carbamoyl]imidazo[1,2-a]pyridin-2-yl}-4-(dimethylamino)-4-oxobutanoate]	< 2
CCOC(=O)C(CC(=O)N(CC)CC)c1cn2c(C(=O)NCC34CC5CC(CC(C5)C3)C4)cccc2n1 (centres unmarked) [Compound 810, ethyl 2-{5-[(adamantan-1-ylmethyl)carbamoyl]imidazo[1,2-a]pyridin-2-yl}-4-(diethylamino)-4-oxobutanoate]	< 2
CCN(CC)C(=O)CC(C(=O)O)c1cn2c(C(=O)NCC34CC5CC(CC(C5)C3)C4)cccc2n1 (centres unmarked) [Compound 811, 2-{5-[(adamantan-1-ylmethyl)carbamoyl]imidazo[1,2-a]pyridin-2-yl}-4-(diethylamino)-4-oxobutanoic acid]	< 2
CN(C)C(=O)CC(C(=O)O)c1cn2c(C(=O)NCC34CC5CC(CC(C5)C3)C4)cccc2n1 (centres unmarked) [Compound 812, 2-{5-[(adamantan-1-ylmethyl)carbamoyl]imidazo[1,2-a]pyridin-2-yl}-4-(dimethylamino)-4-oxobutanoic acid]	< 2
